For the series, the system named is mice. Briefly: acute toxic test using mice. The format is in vivo. As to conditions: administered orally at 5 g/kg. An excerpt: The safety of the theanine used in the present invention is high. […] In addition, especially L-theanine is known as the main component of deliciousness (umami) of tea, and is also used as a food additive for the use of deliciousness, and there is no limitation in its amount according to the Japanese Food Sanitation Act. Moreover, contrary to the conventional medicament for ameliorating sleep disorders, since dependence on the theanine is not found at all, the sleep can be promoted safely and effectively by the use of the composition, food or medicament of the present invention, whereby moderating or ameliorating the sleep disorders.

For the compound `CCNC(=O)CC[C@H](N)C(=O)O` [theanine, γ-glutamylethylamide], the “abnormality in the general state and body weight” value is listed as “no abnormality”; the death cases result was “no death cases”.

Source of the values: patent publication US8293269B2, “Compositions for promoting sleep” (Taiyo Kagaku Co., Ltd., priority 2000, dated 2012).
